Experimental data: patent publication US20120046357A1, “Benzamide and Napthamide Derivatives Inhibiting Nuclear Factor-Kappa (B) - (NK-kB)” (Profectus Biosciences, Inc., priority 2009, published 2012)
Where a name gives a salt, the structure may show the parent alone.

Columns and labels:
[1] = target: T1, c-Rel (Homo sapiens, UniProt Q04864); test: TransAM NF-κB family DNA binding ELISA, c-Rel; type: biochemical; details: for IC50: binding to NF-κB consensus oligonucleotide, cells without % sign
T1 sequence (Q04864 2-619 limits assumed): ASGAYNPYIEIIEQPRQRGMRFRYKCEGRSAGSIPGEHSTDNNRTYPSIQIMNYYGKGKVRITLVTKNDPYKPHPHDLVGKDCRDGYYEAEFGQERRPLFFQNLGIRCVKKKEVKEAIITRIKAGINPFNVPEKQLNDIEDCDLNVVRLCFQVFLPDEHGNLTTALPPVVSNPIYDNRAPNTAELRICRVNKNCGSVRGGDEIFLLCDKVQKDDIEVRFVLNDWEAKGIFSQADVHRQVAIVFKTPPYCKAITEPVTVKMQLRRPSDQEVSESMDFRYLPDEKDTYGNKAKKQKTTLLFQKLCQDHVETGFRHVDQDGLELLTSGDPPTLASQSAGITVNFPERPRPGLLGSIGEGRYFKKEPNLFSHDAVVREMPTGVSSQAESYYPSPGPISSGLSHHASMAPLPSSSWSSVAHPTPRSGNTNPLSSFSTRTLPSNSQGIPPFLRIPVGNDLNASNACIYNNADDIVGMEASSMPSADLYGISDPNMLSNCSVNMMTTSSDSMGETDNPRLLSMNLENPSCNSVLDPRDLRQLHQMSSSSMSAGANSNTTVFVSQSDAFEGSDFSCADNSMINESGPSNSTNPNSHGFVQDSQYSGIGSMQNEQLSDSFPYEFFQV
Procedure: (§1) The binding activity of NF-κB heterodimer or homodimer subunits from activated nuclear extracts or purified recombinant NF-κB proteins exposed to the drug compounds was evaluated using the TransAM NF-κB Family binding ELISA (Active Motif). 3-5 μg of nuclear extracts from TNFα activated Hela or Raji cells (Active Motif) or 20 ng of purified recombinant proteins (p65 and p50 from Active Motif, p52 from Santa Cruz) were incubated for 1 hour at room temperature with 20 μL drug compounds diluted in Complete Lysis buffer without DTT. Treated samples were then transferred to 30 μL Complete Binding Buffer (with DTT) in microplate wells pre-coated with the NF-κB consensus oligonucleotide. […] The plate was incubated for 1 hour at room temperature with gentle shaking and then washed 3 times with 200 μL 1× Wash Buffer. NF-κB p65, p50, p52, RelB, or c-Rel subunits bound to the plate were detected with 100 μL of the primary antibody (diluted 1:1000 in 1× Antibody Buffer) specific for that subunit. The plate was incubated for 1 hour at room temperature and then washed 3 times with 200 μL 1× Wash Buffer. Next, 100 μL of a HRP conjugated goat anti-rabbit antibody (diluted 1:1,000 in 1× Antibody Buffer) was added to each well. The plate was incubated for 1 hour at room temperature and then washed 4 times with 200 μL 1× Wash Buffer. 100 μL of room temperature Developing Solution was added to each well. The reaction was allowed to develop for 2-10 minutes until a medium dark blue color developed (depending on the subunit activity in the lot of extract or lot of recombinant protein used) and then the reaction was stopped with 100 μL Stop Solution yielding a yellow color. Absorbance was recorded using a Becton-Dickinson DTX 880 Multimode Detector at 450 nm with a reference wavelength subtracted at 620 nm. FIGS. 2, 3 and 4 illustrate the effect of Example 10 on inhibiting RelA, RelB and c-Rel binding to NF-κB sites.

[2] = target: T2, RelB (Homo sapiens, UniProt Q01201); test: TransAM NF-κB family DNA binding ELISA, RelB; type: biochemical; details: for IC50: binding to NF-κB consensus oligonucleotide, cells without % sign
T2 sequence (Q01201 1-579): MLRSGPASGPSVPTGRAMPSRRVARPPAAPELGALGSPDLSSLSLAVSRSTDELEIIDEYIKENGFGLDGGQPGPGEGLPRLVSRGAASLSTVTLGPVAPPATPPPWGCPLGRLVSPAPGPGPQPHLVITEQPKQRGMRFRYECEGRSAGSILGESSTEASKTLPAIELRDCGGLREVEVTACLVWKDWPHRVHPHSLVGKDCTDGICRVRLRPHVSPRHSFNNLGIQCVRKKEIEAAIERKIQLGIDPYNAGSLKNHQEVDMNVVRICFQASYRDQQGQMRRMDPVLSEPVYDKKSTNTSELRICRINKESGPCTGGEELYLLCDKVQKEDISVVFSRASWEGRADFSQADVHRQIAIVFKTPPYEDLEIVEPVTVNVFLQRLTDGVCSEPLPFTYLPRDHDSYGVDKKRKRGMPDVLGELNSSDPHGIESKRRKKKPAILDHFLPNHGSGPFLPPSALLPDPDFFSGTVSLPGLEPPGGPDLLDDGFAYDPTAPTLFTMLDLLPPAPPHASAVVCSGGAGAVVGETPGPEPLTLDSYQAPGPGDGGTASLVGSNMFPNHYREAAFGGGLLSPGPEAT
Procedure: as §1

Compound | inhibition at 5 µM [1] [%] | inhibition at 5 µM [2] [%] | IC50 [1] [µM] | IC50 [2] [µM]
O=C(NC1=CC(=O)C2OC2C1O)c1ccc(C(F)(F)F)cc1O (racemic) [Example 1, 2-hydroxy-N-(2-hydroxy-5-oxo-7-oxabicyclo[4.1.0]hept-3-en-3-yl)-4-(trifluoromethyl)benzamide] | 1 | 6 | – | –
O=C(NC1=CC(=O)C2OC2C1O)c1ccc(Cl)cc1O (racemic) [Example 2, (±)-4-chloro-2-hydroxy-N-(2-hydroxy-5-oxo-7-oxabicyclo[4.1.0]hept-3-en-3-yl)benzamide] | 7 | 18 | – | –
Cc1ccc(C(=O)NC2=CC(=O)C3OC3C2O)c(O)c1 (racemic) [Example 3, (±)-2-hydroxy-N-(2-hydroxy-5-oxo-7-oxabicyclo[4.1.0]hept-3-en-3-yl)-4-methylbenzamide] | 5 | 10 | – | –
Cc1cccc(C(=O)NC2=CC(=O)C3OC3C2O)c1O (racemic) [Example 4, (±)-2-hydroxy-N-(2-hydroxy-5-oxo-7-oxabicyclo[4.1.0]hept-3-en-3-yl)-3-methylbenzamide] | 0 | 9 | – | –
COc1ccc(C(=O)NC2=CC(=O)C3OC3C2O)c(O)c1 (racemic) [Example 5, (±)-2-hydroxy-N-(2-hydroxy-5-oxo-7-oxabicyclo[4.1.0]hept-3-en-3-yl)-4-methoxybenzamide] | 6 | 17 | – | –
O=C(NC1=CC(=O)C2OC2C1O)c1cccc(Cl)c1O (racemic) [Example 6, (±)-3-chloro-2-hydroxy-N-(2-hydroxy-5-oxo-7-oxabicyclo[4.1.0]hept-3-en-3-yl)benzamide] | 7 | 13 | – | –
O=C(NC1=CC(=O)C2OC2C1O)c1cc2ccccc2cc1O (racemic) [Example 7, (±)-3-hydroxy-N-(2-hydroxy-5-oxo-7-oxabicyclo[4.1.0]hept-3-en-3-yl)-2-naphthamide] | 2 | 6 | – | –
O=C(NC1=CC(=O)C2OC2C1O)c1ccc2ccccc2c1O (racemic) [Example 8, (±)-1-hydroxy-N-(2-hydroxy-5-oxo-7-oxabicyclo[4.1.0]hept-3-en-3-yl)-2-naphthamide] | 3 | 15 | – | –
O=C(NC1=CC(=O)C2OC2C1O)c1cc(Br)ccc1O (racemic) [Example 9, (±)-5-bromo-2-hydroxy-N-(2-hydroxy-5-oxo-7-oxabicyclo[4.1.0]hept-3-en-3-yl)benzamide] | 20 | 32 | – | –
CN(C)c1ccc(C(=O)NC2=CC(=O)C3OC3C2O)c(O)c1 (racemic) [Example 10, (±)-4-(dimethylamino)-2-hydroxy-N-(2-hydroxy-5-oxo-7-oxabicyclo[4.1.0]hept-3-en-3-yl)benzamide] | – | – | 17 | 23
COc1ccc2cc(O)c(C(=O)NC3=CC(=O)C4OC4C3O)cc2c1 (racemic) [Example 11, (±)-3-hydroxy-N-(2-hydroxy-5-oxo-7-oxabicyclo[4.1.0]hept-3-en-3-yl)-7-methoxy-2-naphthamide] | – | – | 16 | 10
O=C(NC1=CC(=O)C2OC2C1O)c1cc2cc(Br)ccc2cc1O (racemic) [Example 15, (±)-7-bromo-3-hydroxy-N-(2-hydroxy-5-oxo-7-oxabicyclo[4.1.0]hept-3-en-3-yl)-2-naphthamide] | – | – | 3.7 | 3.9
COc1c(C(=O)NC2=CC(=O)C3OC3C2O)ccc(F)c1F (racemic) [Example 16, (±)-3,4-difluoro-N-(2-hydroxy-5-oxo-7-oxabicyclo[4.1.0]hept-3-en-3-yl)-2-methoxybenzamide] | – | – | 8.1 | 2.1
Cc1ccc(C(C)C)c(C(=O)NC2=CC(=O)C3OC3C2O)c1O (racemic) [Example 17, (±)-2-hydroxy-N-(2-hydroxy-5-oxo-7-oxabicyclo[4.1.0]hept-3-en-3-yl)-6-isopropyl-3-methylbenzamide] | – | – | 232 | 82
CN(C)c1ccc(C(=O)NC2=CC(=O)C3OC3C2O)c(O)c1 (racemic) [Example 19, (±)-4-(dimethylamino)-2-hydroxy-N-(2-hydroxy-5-oxo-7-oxabicyclo[4.1.0]hept-3-en-3-yl)benzamide trifluoroacetate] | – | – | 14 | 3.3
COc1cc(N(C)C)ccc1C(=O)NC1=CC(=O)C2OC2C1O (racemic) [Example 20, (±)-4-(dimethylamino)-N-(2-hydroxy-5-oxo-7-oxabicyclo[4.1.0]hept-3-en-3-yl)-2-methoxybenzamide] | – | – | 1.9 | 1
